Measured values taken from PMC9631757 (2022).

Test system: CBZ aptamer (DNA, aptamer) CGAGGCTCTCGGGACGACGGGGCACGGGCCTCTGGGTCGGCATGGCCCGTCGTCCCGCCTTTAGGATTTACAG
Settings: upper bound only; assay and buffer not stated

With `NC(=O)N1c2ccccc2C=Cc2ccccc21` the Kd was < 12 nM.
